Consider 41 substances from patent US20070203066A1, “Compositions and methods for inhibiting cellular proliferation” (priority 2005, published 2007).

No end group written: not given here.

In the test the test system is HUVECs. It counts as cell-based. Conditions: HUVEC proliferation, bFGF at 10 ng/ml or VEGF at 5 ng/ml, 48 hours, BrdU incorporation; read-out: IC50 on HUVECs. Here is the method:
HUVECs were routinely cultured to near confluency in EGM media (Clontech, Mountain View, California). The cells were trypsinized and plated in a 96-well plate at 5,000 cells per well per 100 μl EBM supplemented with 2% FCS and antibiotics. The cells were allowed to adhere to the plate for at least 12 hours. Then, bFGF at 10 ng/ml or VEGF at 5 ng/ml, and various concentrations of peptide, were added to the wells. The cells were cultured for 48 hours at 37 ° C. in a 5% CO2 atmosphere. Cell proliferation was determined using a bromo-deoxyuridine (BrdU) incorporation method as described by the manufacturer. Inhibition of cell proliferation was assessed by BrdU incorporation.
(In general: Uptake of a labelled nucleoside into DNA is a usual measure of proliferation.)
A word on the IC50: it is the concentration that inhibits the measured activity by half. Consider “208 (Ac-RRRARQRVAIIF; also: dimer: Phe C-termini joined via Lys linker) [compound 208]”, for which the IC50 was less than 10 µM. Regarding “209 (Ac-RRRRAQAVRIIF; also: dimer: Phe C-termini joined via Lys linker) [compound 209]”, the 50% inhibitory concentration (IC50) was less than 10 µM. “210 (Ac-RRRRAQRVAIIF; also: dimer: Phe C-termini joined via Lys linker) [compound 210]”: the concentration for half-maximal inhibition (IC50) is less than 10 µM. The result for “211 (Ac-RRRRRQAVAIIF; also: dimer: Phe C-termini joined via Lys linker) [compound 211]” reads less than 10 µM; that for “212 (Ac-AARRRQRVAIIF; also: dimer: Phe C-termini joined via Lys linker) [compound 212]”, more than 30 µM.

Take “213 (Ac-ARARRQRVAIIF; also: dimer: Phe C-termini joined via Lys linker) [compound 213]”: the 50% inhibitory concentration (IC50) is less than 10 µM. The result for “215 (Ac-ARRRAQRVAIIF; also: dimer: Phe C-termini joined via Lys linker) [compound 215]” reads less than 10 µM. Regarding “216 (Ac-ARRRRQAVAIIF; also: dimer: Phe C-termini joined via Lys linker) [compound 216]”, the IC50 is 10 to 30 µM. The figure for “217 (Ac-AHHHHQHVAIIF; also: dimer: Phe C-termini joined via Lys linker) [compound 217]” is more than 30 µM. The figure for “218 (Ac-RARRRQAVAIIF; also: dimer: Phe C-termini joined via Lys linker) [compound 218]” is less than 10 µM; for “219 (Ac-RRARRQAVAIIF; also: dimer: Phe C-termini joined via Lys linker) [compound 219]” it is less than 10 µM. For the substance “220 (Ac-RRRARQAVAIIF; also: dimer: Phe C-termini joined via Lys linker) [compound 220]”, the IC50 is less than 10 µM. For “221 (Ac-RRRRAQAVAIIF; also: dimer: Phe C-termini joined via Lys linker) [compound 221]”, the half-maximal inhibitory concentration (IC50) was less than 10 µM. The result for “222 (XHHHHQAVAIIF; Xaa = Acylated Histidine; Dimeric peptide wherein the C terminus of Phe in position 12 of one peptide chain is covalently bound to one of the amino groups of a Lysine linker and Phe of the remaining peptide chain is covalently bound to the other amino group of the Lysine linker.) [compound 222]” reads more than 30 µM. On to “223 (Ac-ARRRRQRVAIGFK; also: homodimer via Ida linker on side chain of Lys13) [compound 223]”, for which the concentration for half-maximal inhibition (IC50) was more than 30 µM. Turning to “224 (Ac-ARRRRQRVAIHFK; also: homodimer via Ida linker on side chain of Lys13) [compound 224]”, the IC50 was less than 10 µM.

As to “225 (Ac-ARRRRQRVAINFK; also: homodimer via Ida linker on side chain of Lys13) [compound 225]”, the IC50 was less than 10 µM. The figure for “226 (Ac-ARRRRQRVAITFK; also: homodimer via Ida linker on side chain of Lys13) [compound 226]” is less than 10 µM; for “227 (Ac-ARRRRQRVAIWFK; also: homodimer via Ida linker on side chain of Lys13) [compound 227]” it is less than 10 µM. As for “229 (XHRRRQRVRIIF; Xaa = Acylated Histidine; Dimeric peptide wherein the C terminus of Phe in position 12 of one peptide chain is covalently bound to one of the amino groups of a Lysine linker and Phe of the remaining peptide chain is covalently bound to the other amino group of the Lysine linker.) [compound 229]”, the IC50 was less than 10 µM. Take “230 (XRHRRQRVRIIF; Xaa = Acylated Histidine; Dimeric peptide wherein the C terminus of Phe in position 12 of one peptide chain is covalently bound to one of the amino groups of a Lysine linker and Phe of the remaining peptide chain is covalently bound to the other amino group of the Lysine linker.) [compound 230]”: the 50% inhibitory concentration (IC50) was less than 10 µM.

As to “231 (XRRHRQRVRIIF; Xaa = Acylated Histidine; Dimeric peptide wherein the C terminus of Phe in position 12 of one peptide chain is covalently bound to one of the amino groups of a Lysine linker and Phe of the remaining peptide chain is covalently bound to the other amino group of the Lysine linker.) [compound 231]”, the 50% inhibitory concentration (IC50) is less than 10 µM.

Take “232 (XRRRHQRVRIIF; Xaa = Acylated Histidine; Dimeric peptide wherein the C terminus of Phe in position 12 of one peptide chain is covalently bound to one of the amino groups of a Lysine linker and Phe of the remaining peptide chain is covalently bound to the other amino group of the Lysine linker.) [compound 232]”: the IC50 was less than 10 µM. The figure for “233 (XRRRRQHVRIIF; Xaa = Acylated Histidine; Dimeric peptide wherein the C terminus of Phe in position 12 of one peptide chain is covalently bound to one of the amino groups of a Lysine linker and Phe of the remaining peptide chain is covalently bound to the other amino group of the Lysine linker.) [compound 233]” is less than 10 µM; for “234 (XRRRRQRVHIIF; Xaa = Acylated Histidine; Dimeric peptide wherein the C terminus of Phe in position 12 of one peptide chain is covalently bound to one of the amino groups of a Lysine linker and Phe of the remaining peptide chain is covalently bound to the other amino group of the Lysine linker.) [compound 234]” it is less than 10 µM. The figure for “235 (Ac-RHHRRQRVRIIF; also: dimer via C-terminal Phe to Lys linker) [compound 235]” is less than 10 µM; for “236 (Ac-RHRHRQRVRIIF; also: dimer via C-terminal Phe to Lys linker) [compound 236]” it is less than 10 µM; for “237 (Ac-RHRRHQRVRIIF; also: dimer via C-terminal Phe to Lys linker) [compound 237]” it is less than 10 µM. Consider “238 (Ac-RHRRRQHVRIIF; also: dimer via C-terminal Phe to Lys linker) [compound 238]”, for which the IC50 is less than 10 µM.

For the substance “239 (Ac-RHRRRQRVHIIF; also: dimer via C-terminal Phe to Lys linker) [compound 239]”, the half-inhibitory concentration (IC50) is less than 10 µM. Regarding “240 (Ac-RRHHRQRVRIIF; also: dimer via C-terminal Phe to Lys linker) [compound 240]”, the half-inhibitory concentration (IC50) was less than 10 µM. Consider “241 (Ac-RRHRHQRVRIIF; also: dimer via C-terminal Phe to Lys linker) [compound 241]”, for which the half-maximal inhibitory concentration (IC50) was less than 10 µM. The figure for “242 (Ac-RRHRRQHVRIIF; also: dimer via C-terminal Phe to Lys linker) [compound 242]” is less than 10 µM. For the substance “243 (Ac-RRHRRQRVHIIF; also: dimer via C-terminal Phe to Lys linker) [compound 243]”, the IC50 is less than 10 µM.

In the case of “244 (Ac-RRRHRQHVRIIF; also: homodimer: C-termini of two chains bound to the two amines of a Lys linker) [compound 244]”, the IC50 was less than 10 µM. As for “245 (Ac-RRRHRQRVHIIF; also: homodimer: C-termini of two chains bound to the two amines of a Lys linker) [compound 245]”, the IC50 is 10 to 30 µM. With “246 (Ac-RRRRHQHVRIIF; also: homodimer: C-termini of two chains bound to the two amines of a Lys linker) [compound 246]”, the 50% inhibitory concentration (IC50) was less than 10 µM. Consider “247 (Ac-RRRRHQRVHIIF; also: homodimer: C-termini of two chains bound to the two amines of a Lys linker) [compound 247]”, for which the half-inhibitory concentration (IC50) is less than 10 µM. With “248 (Ac-RRRRRQHVHIIF; also: homodimer: C-termini of two chains bound to the two amines of a Lys linker) [compound 248]”, the 50% inhibitory concentration (IC50) was less than 10 µM. The result for “249 (Ac-RRRRRQAVAIEFK; not fully specified (C-terminus); also: homodimer: side chain of Lys13 bound to an Ida linker) [compound 249]” reads 10 to 30 µM; that for “250 (Ac-RRRRRQAVAIHFK; not fully specified (C-terminus); also: homodimer: side chain of Lys13 bound to an Ida linker) [compound 250]”, less than 10 µM.
